Source: US11850233B2, “Reduced adaptive microbial resistance treatment for flesh eating disease (necrotizing fasciitis)” (priority 2019, dated 2023)
Entries after “also recorded” stand apart in the source; their conditions may differ. Counter-ions that a name gives are not always drawn. Like-named read-outs stand apart in the source and are kept apart here.

Key:
E. coli (BL21) bacteria [1] = assay: In vitro inhibition of E. coli (BL21) growth on LB agar plates, dark or irradiated; format: cell-based
From the text: E. coli (BL21) bacteria was used as a model prokaryote to determine the efficacy of the inventive treatment composition to kill bacteria. The effect of inventive composition as well as each individual component of the composition were all tested to determine the effect each on the growth of E. coli bacteria. The procedure described in Herschmann, R. J. et al (2019) “Effect of toxic metal ions on photosensitized singlet oxygen generation for photodegradation of polyaromatic hydrocarbon derivatives and inactivation of Escherichia coli” Photochemistry and Photobiology 86, 890-894, was followed. The bacterial cultures were grown in an incubator in Luria-Broth (LB)—Lennox formulation at 28° C. with shaking at 250 rpm. Once the cells reached the beginning of their exponential growth phase (A600=0.2), one milliliter aliquots were removed and centrifuged. The resulting pellets were washed once with sterile water and then resuspended in 500.0 μL of sterile water. The resuspended bacteria were mixed with 200.0 μL of stock solutions of the components or the multifunctional was selected for testing at 0.3 ppm for all components of the composition. The experimental samples were irradiated in a Rayonet photoreactor for 10 minutes or covered and kept in the dark for 10 minutes. Controls were prepared using 200.0 μL of sterile water were also prepared with one control being irradiated and the other control being kept in the dark. All samples were then briefly vortexed to thoroughly mix samples, and 20.0 μL aliquots of each sample were evenly spread using standard techniques over individual LB agar petri dishes. The plates were inverted and incubated at 28° C. for 48 hours. Results are reported as observed effects of the composition and each component of the composition on the inhibition of the growth of E. coli on the plates.

[2] = tested on: MCF-7 breast cancer cells; assay: MTS assay of MCF-7 breast cancer cell proliferation, dark or irradiated; format: cell-based; settings: aerobic, 0.3 ppm, after 48 hours
Experimental: For breast cancer cells experiment, a stored sample was taken and incubated for 3 to 5 minutes until room temperature. 5 mL of supplemented medium was placed in a 15 mL centrifuge tube. The contents in the cryotube were transferred into the 15 mL centrifuge tube containing the 5 mL medium. This mixture was centrifuged for 5 minutes at 1000 rpm. The supernatant was removed, and 3 mL of the medium was added to the cells and mixed thoroughly. From this mixture, 1 mL was placed into three separate culture flasks with 11 mL of medium each. These flasks were placed in a humidified atmosphere of 32° C. and 5% CO2. After incubation, cells were rinsed with PBS and aspirated. Cells were washed with trypsin, covered and placed in the incubator for five minutes. Solutions were then mixed with 4 mL of medium and subsequently transferred into a 15 mL centrifuge tube to be centrifuged for 5 minutes at 1000 rpm. The supernatant was then aspirated, and cells were re-suspended in 3-10 mL of medium. From here, 1 mL aliquots of this mixture were placed with 11 mL of medium in a new flask. Lastly, these flasks were placed in humidified atmosphere of 32° C. and 5% CO2. An aliquot of the stock solution (i.e. 9.5 mL) was removed from the stock culture and combined with an appropriate amount of regular medium (i.e. 220.5 mL). After proper mixing the stock with fresh media, 3 mL of the mixture were placed in each of the wells in a 6-well plate. Using the manufacturer's protocol, a MTS assay was performed to assess cell proliferation and toxicity of the multifunctional treatment composition. The concentrations of inventive treatment composition and its individual components were 0.3 ppm, until adjusted. The proliferation(s) of cells were compared to a control of cells alone. The growth the control was standardized as 100% growth and the cell proliferation in the presence of the treatment composition was observed and reported on the bases of percent when compared to the control. Similar procedure was followed for light experiment where samples were irradiated in a Rayonet photoreactor for 10 minutes.

E. coli (BL21) bacteria [3] = settings: cited from earlier work
[4] = Rate of DHN photooxidation under visible light irradiation (absorption at 300 nm); format: physicochemical; settings: Zinc (II) 0.000 ppm, TMPyP 3.67×10^−7 M, DHN 1.2×10^−4 M, aerobic aqueous
Experimental: Quartz cuvettes with 1 cm path-length and 3.0 mL volume were used for all measurements.
For singlet oxygenation experiment, a 3.0 mL solution of DHN (1.2×10^−4 M) and TMPyP (3.67×10^−7 M) was prepared by mixing 36 μL of 1×10^−2 M of DHN standard solution and 1.10 μL of 1×10^−3 M of TMPyP standard solution with ultrapure water at room temperature in an open atmosphere. Singlet oxygenation of sample was conducted in a Rayonet photoreactor for approximately 10 min at 28° C. and the photooxidation of DHN was monitored by recording a decrease in UV-Vis absorption of DHN at 300 nm for 10 min in 2 min intervals.

[5] = known value of the standard, prior art; cited from earlier work
[6] = dark, aerobic, 0.3 ppm (Example 1 composition: Zn(II) 0.15 ppm + TMPyP 0.15 ppm), 10 minutes, plates after 48 hours
[7] = visible light irradiation 10 minutes, aerobic, 0.3 ppm (composition: Zn(II) 0.15 ppm + TMPyP 0.15 ppm), plates after 48 hours

Q: Which results are given for [Fe+2] [Iron(II)]?
A: inhibition of growth of E. coli (E. coli (BL21) bacteria [1]; [6]): zero inhibition; inhibition of growth of E. coli (E. coli (BL21) bacteria [1]; [7]): zero inhibition

Q: Which “inhibition of growth of MCF-7 breast cancer cells” value ([2]; dark) does the source give for C[n+]1ccc(-c2c3nc(c(-c4cc[n+](C)cc4)c4ccc([nH]4)c(-c4cc[n+](C)cc4)c4nc(c(-c5cc[n+](C)cc5)c5ccc2[nH]5)C=C4)C=C3)cc1.[Cl-].[Cl-].[Cl-].[Cl-] [TMPyP, meso-tetra(N-methyl-4-pyridyl) porphyrin tetrachloride] here?
A: almost no inhibition

Q: What about the “inhibition of growth of MCF-7 breast cancer cells” value ([2]; visible light irradiation) of the same compound?
A: nearly complete inhibition

Q: And the “E. coli growth inhibition reported by others” value (E. coli (BL21) bacteria [3]; light, aerobic conditions, Khurana et al 2019)?
A: inhibits E. coli growth

Q: And the “Rate Constant, k of DHN photooxidation” value [4]?
A: 0.0001601 s⁻¹

Q: What about the “inhibition of growth of E. coli bacteria” value (E. coli (BL21) bacteria [1]) of the same compound?
A: 100%

Q: For [Zn+2] [Zn(II) ions, zinc (II) sulfate], which “inhibition of growth of MCF-7 breast cancer cells” value ([2]; dark) is on record?
A: no inhibition effect

Q: And the “inhibition of growth of MCF-7 breast cancer cells” value ([2]; visible light irradiation)?
A: little or no inhibition effect

Q: And the “inhibition of growth of E. coli” value (E. coli (BL21) bacteria [1])?
A: essentially no noticeable inhibition; also recorded: almost no inhibition

Q: Which “inhibition of growth of E. coli” value (E. coli (BL21) bacteria [1]; [6]) does the source give for CC1(C)S[C@@H]2[C@H](NC(=O)[C@H](N)c3ccccc3)C(=O)N2[C@H]1C(=O)O [ampicillin, Ampicillin] here?
A: Almost no inhibition

Q: Which “inhibition of growth of E. coli” value (E. coli (BL21) bacteria [1]; [6]) does the source give for O=C(N[C@H](CO)[C@H](O)c1ccc([N+](=O)[O-])cc1)C(Cl)Cl [chloramphenicol, Chloramphenicol] here?
A: Almost no inhibition

Q: For [Co+2] [cobalt (II)], which “inhibition of growth of E. coli” value (E. coli (BL21) bacteria [1]) is on record?
A: zero inhibition

Q: For [Mn+2] [manganese(II)], which “inhibition of growth of E. coli” value (E. coli (BL21) bacteria [1]; [6]) is on record?
A: zero inhibition

Q: What about the “inhibition of growth of E. coli” value (E. coli (BL21) bacteria [1]; [7]) of the same compound?
A: zero inhibition

Q: For CN(C)c1ccc2nc3ccc(=[N+](C)C)cc-3sc2c1 [methylene blue], which “singlet oxygen quantum yield (ϕΔ)” value [5] is on record?
A: 0.52

Q: With “meso-tetrakis(N-methyl-4-pyridyl) porphyrin with Zn metal stably bound into the core of porphyrin [ZnTMPyP]” as the compound, how does the “E. coli killing / growth inhibition reported earlier” value (E. coli (BL21) bacteria [3]; dark conditions, tests by others or PCT/US2018/024338) read?
A: not effective

Q: And the “inhibition of growth of E. coli” value (E. coli (BL21) bacteria [1]; [6])?
A: almost no inhibition

Q: What about the “inhibition of growth of E. coli” value (E. coli (BL21) bacteria [1]; [7]) of the same compound?
A: inhibition of growth
